According to ChEMBL document CHEMBL3885861, “Open TG-GATES”:

Organism: Rattus norvegicus
Experiment: Open TG-GATES - Regimen: Daily Repeat
Format: toxicity, organism-based, Sprague-Dawley
Design: regimen Daily Repeat, gender Male, age 6 weeks
Settings: in vivo, po, 1000 mg/kg, route gavage, dose level High; for APTT / Bas / Eos / Fbg / Hb / Ht / Lym / MCH / MCHC / MCV / Mono / Neu / PT / Plat / RBC / Ret / WBC: tissue Blood; for KIDNEY_L / KIDNEY_R / KIDNEY_TOTAL: tissue Kidney; for LIVER: tissue Liver; for A/G / ALP / ALT / AST / BUN / CRE / Ca / Cl / DBIL / GLC / IP / K / LDH / Na / PL / RALB / TBIL / TC / TG / TP / gamma-GTP: tissue Plasma

SMILES: C[C@H]1O[C@H](O[C@H]2[C@H](O)[C@@H](O)[C@@H](O[C@H]3[C@H](O)[C@@H](O)C(O)O[C@@H]3CO)O[C@@H]2CO)[C@H](O)[C@@H](O)[C@@H]1N[C@H]1C=C(CO)[C@@H](O)[C@H](O)[C@H]1O (some centres not stated) [ACARBOSE]
- TERMINAL_BW (72 h, time 3 day): 230.8 g
- APTT (72 h, time 3 day): 17.8 s
- Bas (72 h, time 3 day): 0%
- Eos (72 h, time 3 day): 1%
- Fbg (72 h, time 3 day): 308.6 mg/dL
- Hb (72 h, time 3 day): 13.5 g/dL
- Ht (72 h, time 3 day): 40.6%
- Lym (72 h, time 3 day): 75.8%
- MCH (72 h, time 3 day): 21.2 pg
- MCHC (72 h, time 3 day): 33.3%
- MCV (72 h, time 3 day): 63.7 fL
- Mono (72 h, time 3 day): 2.8%
- Neu (72 h, time 3 day): 19.6%
- PT (72 h, time 3 day): 13 s
- Plat (72 h, time 3 day): 118.2 x10_4/uL
- RBC (72 h, time 3 day): 638.2 x10_4/ul
- Ret (72 h, time 3 day): 6.9%
- WBC (72 h, time 3 day): 90.6 x10_2/uL
- KIDNEY_L (72 h, time 3 day): 1 g
- KIDNEY_R (72 h, time 3 day): 1 g
- KIDNEY_TOTAL (72 h, time 3 day): 2 g
- LIVER (72 h, time 3 day): 10.9 g
- A/G (72 h, time 3 day): 0.9
- ALP (72 h, time 3 day): 1494.4 IU/L
- ALT (72 h, time 3 day): 46.8 IU/L
- AST (72 h, time 3 day): 74 IU/L
- BUN (72 h, time 3 day): 13.4 mg/dL
- CRE (72 h, time 3 day): 0.2 mg/dL
- Ca (72 h, time 3 day): 10.7 mg/dL
- Cl (72 h, time 3 day): 104.2 meq/L
- DBIL (72 h, time 3 day): 0.012 mg/dL
- GLC (72 h, time 3 day): 169.8 mg/dL
- IP (72 h, time 3 day): 7.7 mg/dL
- K (72 h, time 3 day): 3.9 meq/L
- LDH (72 h, time 3 day): 95.2 IU/L
- Na (72 h, time 3 day): 140 meq/L
- PL (72 h, time 3 day): 140 mg/dL
- RALB (72 h, time 3 day): 2.6 g/dL
- TBIL (72 h, time 3 day): 0.062 mg/dL
- TC (72 h, time 3 day): 75.2 mg/dL
- TG (72 h, time 3 day): 87 mg/dL
- TP (72 h, time 3 day): 5.5 g/dL
- gamma-GTP (72 h, time 3 day): 1 IU/L
- TERMINAL_BW ([…], time 7 day): 275.6 g
- TERMINAL_BW ([…], time 14 day): 312 g
- TERMINAL_BW ([…], time 28 day): 399.3 g
- APTT ([…], time 7 day): 16.9 s
- Bas ([…], time 7 day): 0%
- Eos ([…], time 7 day): 1%
- Fbg ([…], time 7 day): 302.6 mg/dL
- Hb ([…], time 7 day): 13.6 g/dL
- Ht ([…], time 7 day): 40.4%
- Lym ([…], time 7 day): 79.8%
- MCH ([…], time 7 day): 20.9 pg
- MCHC ([…], time 7 day): 33.7%
- MCV ([…], time 7 day): 62.2 fL
- Mono ([…], time 7 day): 2.2%
- Neu ([…], time 7 day): 16.2%
- PT ([…], time 7 day): 13.1 s
- Plat ([…], time 7 day): 119.8 x10_4/uL
- RBC ([…], time 7 day): 649.4 x10_4/ul
- Ret ([…], time 7 day): 6.1%
- WBC ([…], time 7 day): 120 x10_2/uL
- APTT ([…], time 14 day): 21 s
- Bas ([…], time 14 day): 0%
- Eos ([…], time 14 day): 1%
- Fbg ([…], time 14 day): 297 mg/dL
- Hb ([…], time 14 day): 14.7 g/dL
- Ht ([…], time 14 day): 43.8%
- Lym ([…], time 14 day): 79%
- MCH ([…], time 14 day): 20.6 pg
- MCHC ([…], time 14 day): 33.5%
- MCV ([…], time 14 day): 61.4 fL
- Mono ([…], time 14 day): 1.8%
- Neu ([…], time 14 day): 17.4%
- PT ([…], time 14 day): 13.3 s
- Plat ([…], time 14 day): 135 x10_4/uL
- RBC ([…], time 14 day): 713.4 x10_4/ul
- Ret ([…], time 14 day): 4.4%
- WBC ([…], time 14 day): 106.9 x10_2/uL
- APTT ([…], time 28 day): 17.7 s
- Bas ([…], time 28 day): 0.4%
- Eos ([…], time 28 day): 1.2%
- Fbg ([…], time 28 day): 283 mg/dL
- Hb ([…], time 28 day): 16.2 g/dL
- Ht ([…], time 28 day): 47.2%
- Lym ([…], time 28 day): 83.6%
- MCH ([…], time 28 day): 19.6 pg
- MCHC ([…], time 28 day): 34.4%
- MCV ([…], time 28 day): 57 fL
- Mono ([…], time 28 day): 2%
- Neu ([…], time 28 day): 12.6%
- PT ([…], time 28 day): 13.3 s
- Plat ([…], time 28 day): 102.8 x10_4/uL
- RBC ([…], time 28 day): 829 x10_4/ul
- Ret ([…], time 28 day): 2.2%
- WBC ([…], time 28 day): 110.1 x10_2/uL
- KIDNEY_L ([…], time 7 day): 1.1 g
- KIDNEY_R ([…], time 7 day): 1.1 g
- KIDNEY_TOTAL ([…], time 7 day): 2.2 g
- KIDNEY_L ([…], time 14 day): 1.2 g
- KIDNEY_R ([…], time 14 day): 1.2 g
- KIDNEY_TOTAL ([…], time 14 day): 2.4 g
- KIDNEY_L ([…], time 28 day): 1.4 g
- KIDNEY_R ([…], time 28 day): 1.3 g
- KIDNEY_TOTAL ([…], time 28 day): 2.7 g
- LIVER ([…], time 7 day): 13.9 g
- LIVER ([…], time 14 day): 13.4 g
- LIVER ([…], time 28 day): 16.6 g
- A/G ([…], time 7 day): 0.9
- ALP ([…], time 7 day): 1346.8 IU/L
- ALT ([…], time 7 day): 41.2 IU/L
- AST ([…], time 7 day): 66 IU/L
- BUN ([…], time 7 day): 16.6 mg/dL
- CRE ([…], time 7 day): 0.2 mg/dL
- Ca ([…], time 7 day): 10.9 mg/dL
- Cl ([…], time 7 day): 103.2 meq/L
- DBIL ([…], time 7 day): 0.012 mg/dL
- GLC ([…], time 7 day): 182.4 mg/dL
- IP ([…], time 7 day): 7.3 mg/dL
- K ([…], time 7 day): 3.9 meq/L
- LDH ([…], time 7 day): 88.4 IU/L
- Na ([…], time 7 day): 141.4 meq/L
- PL ([…], time 7 day): 140.2 mg/dL
- RALB ([…], time 7 day): 2.6 g/dL
- TBIL ([…], time 7 day): 0.048 mg/dL
- TC ([…], time 7 day): 66.4 mg/dL
- TG ([…], time 7 day): 134.8 mg/dL
- TP ([…], time 7 day): 5.7 g/dL
- gamma-GTP ([…], time 7 day): 1 IU/L
- A/G ([…], time 14 day): 0.8
- ALP ([…], time 14 day): 1516 IU/L
- ALT ([…], time 14 day): 40 IU/L
- AST ([…], time 14 day): 69.8 IU/L
- BUN ([…], time 14 day): 17.4 mg/dL
- CRE ([…], time 14 day): 0.3 mg/dL
- Ca ([…], time 14 day): 10.7 mg/dL
- Cl ([…], time 14 day): 105.2 meq/L
- DBIL ([…], time 14 day): 0.006 mg/dL
- GLC ([…], time 14 day): 184 mg/dL
- IP ([…], time 14 day): 7 mg/dL
- K ([…], time 14 day): 4.1 meq/L
- LDH ([…], time 14 day): 88.8 IU/L
- Na ([…], time 14 day): 142.2 meq/L
- PL ([…], time 14 day): 138.2 mg/dL
- RALB ([…], time 14 day): 2.7 g/dL
- TBIL ([…], time 14 day): 0.046 mg/dL
- TC ([…], time 14 day): 69.8 mg/dL
- TG ([…], time 14 day): 89 mg/dL
- TP ([…], time 14 day): 5.8 g/dL
- gamma-GTP ([…], time 14 day): 1 IU/L
- A/G ([…], time 28 day): 0.8
- ALP ([…], time 28 day): 1153.4 IU/L
- ALT ([…], time 28 day): 35.4 IU/L
- AST ([…], time 28 day): 63.6 IU/L
- BUN ([…], time 28 day): 18.4 mg/dL
- CRE ([…], time 28 day): 0.3 mg/dL
- Ca ([…], time 28 day): 10.8 mg/dL
- Cl ([…], time 28 day): 104.6 meq/L
- DBIL ([…], time 28 day): 0.014 mg/dL
- GLC ([…], time 28 day): 180.2 mg/dL
- IP ([…], time 28 day): 6.5 mg/dL
- K ([…], time 28 day): 4 meq/L
- LDH ([…], time 28 day): 72.6 IU/L
- Na ([…], time 28 day): 142 meq/L
- PL ([…], time 28 day): 151.8 mg/dL
- RALB ([…], time 28 day): 2.8 g/dL
- TBIL ([…], time 28 day): 0.058 mg/dL
- TC ([…], time 28 day): 73.4 mg/dL
- TG ([…], time 28 day): 166.2 mg/dL
- TP ([…], time 28 day): 6.2 g/dL
- gamma-GTP ([…], time 28 day): 1.2 IU/L
